Results taken from patent publication US20060084135A1, “Compositions for manipulating the lifespan and stress response of cells and organisms” (priority 2003, published 2006).
Values joined by “and” are separate entries in the source; they are usually repeats but may differ in a detail not shown here. Identical values can stand only once. Like-named read-outs stand apart in the source and are kept apart here.

Biological target: T1, recombinant human SIRT1 (Homo sapiens, UniProt Q96EB6)
T1 sequence (Q96EB6 1-747): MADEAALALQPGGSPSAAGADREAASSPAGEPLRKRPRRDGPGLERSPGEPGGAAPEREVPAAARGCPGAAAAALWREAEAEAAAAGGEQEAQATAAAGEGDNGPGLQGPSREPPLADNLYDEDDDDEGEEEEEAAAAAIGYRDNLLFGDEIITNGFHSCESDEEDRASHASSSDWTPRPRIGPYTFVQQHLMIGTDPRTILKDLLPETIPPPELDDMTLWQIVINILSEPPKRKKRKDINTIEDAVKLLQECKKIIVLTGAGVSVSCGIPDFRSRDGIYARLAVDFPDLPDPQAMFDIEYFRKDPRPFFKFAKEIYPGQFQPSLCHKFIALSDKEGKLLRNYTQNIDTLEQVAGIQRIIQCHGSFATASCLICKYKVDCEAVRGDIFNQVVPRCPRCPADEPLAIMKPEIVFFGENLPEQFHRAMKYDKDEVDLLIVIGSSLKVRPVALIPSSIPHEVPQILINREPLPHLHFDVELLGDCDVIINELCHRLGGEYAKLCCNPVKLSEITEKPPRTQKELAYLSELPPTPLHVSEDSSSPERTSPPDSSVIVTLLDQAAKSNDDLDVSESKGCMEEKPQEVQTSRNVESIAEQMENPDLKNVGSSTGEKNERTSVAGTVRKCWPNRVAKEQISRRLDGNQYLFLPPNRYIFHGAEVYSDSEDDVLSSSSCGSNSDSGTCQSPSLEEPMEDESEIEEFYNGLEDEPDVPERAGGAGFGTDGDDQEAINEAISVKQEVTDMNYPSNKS
Assay: SIRT1 fluorescent deacetylation assay (p53-382 acetylated peptide substrate)
Assay type: biochemical

[1] = Supplementary Table 1, stilbenes and chalcones, 100 μM, 25 μM NAD+, 25 μM p53-382 acetylated peptide
[2] = Supplementary Table 3, flavones part II, 100 μM, 25 μM NAD+, 25 μM p53-382 acetylated peptide
[3] = Supplementary Table 2, flavones part I, 100 μM, 25 μM NAD+, 25 μM p53-382 acetylated peptide
[4] = Table 11, resveratrol analogs, 100 μM, 25 μM NAD+, 25 μM p53-382 acetylated peptide
[5] = Table 13, resveratrol analogs, 100 μM, 25 μM NAD+, 25 μM p53-382 acetylated peptide
[6] = Supplementary Table 7, miscellaneous compounds, 100 μM, 25 μM NAD+, 25 μM p53-382 acetylated peptide
[7] = Table 10, resveratrol analogs, 100 μM, 25 μM NAD+, 25 μM p53-382 acetylated peptide
[8] = Table 9, resveratrol analogs, 100 μM, 25 μM NAD+, 25 μM p53-382 acetylated peptide
[9] = Supplementary Table 8, compound at 100 μM, 25 μM NAD+, 25 μM p53-382 acetylated peptide
[10] = Table 12, resveratrol analogs, 100 μM, 25 μM NAD+, 25 μM p53-382 acetylated peptide
[11] = Supplementary Table 6, free radical protective compounds, 100 μM, 25 μM NAD+, 25 μM p53-382 acetylated peptide
[12] = Supplementary Table 4, isoflavones, flavanones, anthocyanidins, 100 μM, 25 μM NAD+, 25 μM p53-382 acetylated peptide

With C(=C/c1ccccc1)/c1ccccc1 [cis-Stilbene] the “Ratio to Control Rate Mean ± SE” value [1] was 1.14 ± 0.29.

O=c1cc(-c2ccccc2)oc2ccccc12 [Flavone] was tested, and the “Ratio to Control Rate Mean ± SE” value [2] was 1.41 ± 0.23.

O=c1cc(-c2ccc(O)cc2)oc2cc(O)c(O)c(O)c12 [6-Hydroxyapigenin, 5,6,7,4′-Tetrahydroxyflavone] was tested, and the “Ratio to Control Rate Mean ± SE” value [3] was 3.06 ± 0.29.

O=c1oc2cc(O)ccc2c2oc3cc(O)ccc3c12 [Coumestrol] was tested, and the “Ratio to Control Rate Mean ± SE” value (Supplementary Table 8, compound at 10 μM, 25 μM NAD+, 25 μM p53-382 acetylated peptide) was 2.30 ± 0.31.

With Oc1cccc(/C=C/c2ccccc2)c1 [3-Hydroxystilbene] the “Ratio to Control Rate Mean ± SE” value [4] was 2.357 ± 0.074.

Oc1ccc(/C=C/c2ccccc2)cc1 [4-Hydroxy-trans-stilbene] was tested, and the “Ratio to Control Rate Mean ± SE” value [5] was 0.943 ± 0.039.

O=c1c(O)c(-c2ccc(O)cc2)oc2cc(O)cc(O)c12 [Kaempferol, 3,5,7,4′-Tetrahydroxyflavone] was tested, and the “Ratio to Control Rate Mean ± SE” value [3] was 3.55 ± 0.56.

In the case of O=C(Nc1cccc(C(=O)Nc2ccc(S(=O)(=O)O)c3cc(S(=O)(=O)O)cc(S(=O)(=O)O)c23)c1)Nc1cccc(C(=O)Nc2ccc(S(=O)(=O)O)c3cc(S(=O)(=O)O)cc(S(=O)(=O)O)c23)c1 [NF023, reference compound], the “Ratio to Control Rate Mean ± SE” value [6] is reported as −0.0016.

For [N-]=[N+]=Nc1ccc(/C=C/c2cc(O)cc(O)c2)cc1 [BML-232, 3,5-Dihydroxy-4′-azido-trans-stilbene], the “Ratio to Control Rate Mean ± SE” value [7] was 7.24 ± 0.12 and the “SIRT1 stimulating activity (in words)” value (polyphenol screen) was “very similar SIRT1 activating properties to resveratrol”.

For O=c1cc(-c2cc(O)c(O)c(O)c2)oc2cc(O)ccc12 [7,3′,4′,5′-Tetrahydroxyflavone], the “Ratio to Control Rate Mean ± SE” value [3] was 3.62 ± 0.56.

For CCc1ccc(/C=C/c2cc(O)cc(O)c2)cc1 [BML-225, 3,5-Dihydroxy-4′-ethyl-trans-stilbene], the “Ratio to Control Rate Mean ± SE” value [8] was 9.373 ± 0.014.

With O=c1c(O)c(-c2cc(O)c(O)c(O)c2)oc2cc(O)cc(O)c12 [Myricetin, 3,5,7,3′,4′,5′-Hexahydroxyflavone] the “Ratio to Control Rate Mean ± SE” value [2] was 0.898 ± 0.070.

In the case of Cc1ccc(NC(=O)c2cccc(N(C)C)c2)cc1NC(=O)c1ccc(O)cc1 [ZM 336372, reference compound], the “Ratio to Control Rate Mean ± SE” value [9] is reported as 3.5 ± 1.1.

In the case of Oc1ccc(CCc2cc(O)cc(O)c2)cc1 [Dihydroresveratrol, 1-(3,5-Dihydroxyphenyl)-2-(4-hydroxyphenyl) ethane], the “Ratio to Control Rate Mean ± SE” value [5] is reported as 1.08 ± 0.14.

Oc1cc(O)cc(/C=C/C2CCCCC2)c1 [BML-224, (E)-1-(3,5-Dihydroxyphenyl)-2-(cyclohexyl) ethene] was tested, and the “Ratio to Control Rate Mean ± SE” value [10] was 1.297 ± 0.042.

For COc1ccc(/C=C/c2ccccc2)cc1OC [3,4-Dimethoxy-trans-stilbene], the “Ratio to Control Rate Mean ± SE” value [10] was 1.127 ± 0.019.

For Cc1c(C)c2c(c(C)c1O)CCC(C)(CN1CCN(c3cc(N4CCCC4)nc(N4CCCC4)n3)CC1)O2.Cl.Cl (single isomer, unassigned; (-)) [Compound U-83836E, (−)-2-((4-(2,6-di-1-Pyrrolidinyl-4-pyrimidinyl)-1-piperazinyl)methyl)-3,4-dihydro-2,5,7,8-tetramethyl-2H-1-benzopyran-6-ol-2HCl, reference compound], the “Ratio to Control Rate Mean ± SE” value [11] was 1.030 ± 0.055.

With O=c1c(O)c(-c2ccc(O)c(O)c2)oc2ccc(O)cc12 [3,6,3′,4′-Tetrahydroxyflavone] the “Ratio to Control Rate Mean ± SE” value [3] was 5.45 ± 0.57.

In the case of C(=C\c1ccccc1)/c1ccccc1 [trans-Stilbene], the “Ratio to Control Rate Mean ± SE” value [1] is reported as 1.48 ± 0.15.

For CSc1ccc(/C=C/c2cc(O)cc(O)c2)cc1 [BML-230, 3,5-Dihydroxy-4′-thiomethyl-trans-stilbene], the “Ratio to Control Rate Mean ± SE” value [7] was 6.84 ± 1.26.

With O=c1c(O)c(-c2ccc(O)cc2O)oc2ccc(O)cc12 [3,6,2′,4′-Tetrahydroxyflavone] the “Ratio to Control Rate Mean ± SE” value [3] was 2.10 ± 0.22.

CC(=O)Oc1cc(O)cc(/C=C/c2ccc(O)cc2)c1 [BML-227, 3,4′-Dihydroxy-5-acetoxy-trans-stilbene] was tested, and the “Ratio to Control Rate Mean ± SE” value [4] was 3.340 ± 0.093.

For Oc1cc(O)c2cc(O)c(-c3cc(O)c(O)c(O)c3)[o+]c2c1.[Cl-] [Delphinidin chloride, 3,5,7,3′,4′,5′-Hexahydroxyflavylium chloride], the “Ratio to Control Rate Mean ± SE” value [12] was 0.4473 ± 0.0071.

With CC(Cc1ccc(O)c(O)c1)C(C)Cc1ccc(O)c(O)c1 (stereo not drawn) [NDGA] the “Ratio to Control Rate Mean ± SE” value [9] was 1.738 ± 0.088.

O=C1CC(c2ccc(O)cc2)Oc2cc(O)cc(O)c21 (stereo not drawn) [Naringenin, 5,7,4′-Trihydroxyflavanone] was tested, and the “Ratio to Control Rate Mean ± SE” value [12] was 2.10 ± 0.23.

O=c1cc(-c2ccc(O)cc2)oc2cc(O)ccc12 [7,4′-Dihydroxyflavone] was tested, and the “Ratio to Control Rate Mean ± SE” value [3] was 1.91 ± 0.17.

With Cc1c(C)c2c(c(C)c1O)CCC(C)(C(=O)O)O2 (stereo not drawn) [Trolox, 6-Hydroxy-2,5,7,8-tetramethylchroman-2-carboxylic acid, reference compound] the “Ratio to Control Rate Mean ± SE” value [11] was 0.995 ± 0.019.

In the case of O=c1cc(-c2ccc(O)c(O)c2)oc2cc(O)cc(O)c12 [Luteolin, 5,7,3′,4′-Tetrahydroxyflavone], the “Ratio to Control Rate Mean ± SE” value [3] is reported as 5.66 ± 0.80.

With Oc1ccc(-c2[o+]c3cc(O)cc(O)c3cc2O)cc1.[Cl-] [Pelargonidin chloride, 3,5,7.4′-Tetrahydroxyflavylium chloride] the “Ratio to Control Rate Mean ± SE” value was 1.586.

With COc1ccc(/C=C/c2cc(O)cc(O)c2)cc1O [Rhapontin aglycone, 3,5,3′Trihydroxy-4′-methoxy-trans-stilbene] the “Ratio to Control Rate Mean ± SE” value [4] was 4.060 ± 0.069.

With O=C1CC(c2ccccc2)Oc2ccccc21 (stereo not drawn) [Flavanone] the “Ratio to Control Rate Mean ± SE” value [12] was 1.92 ± 0.24.

O=c1c(O)c(-c2ccc(O)c(O)c2)oc2c(O)c(O)cc(O)c12 [Gossypetin, 3,5,7,8,3′,4′-Hexahydroxyflavone] was tested, and the “Ratio to Control Rate Mean ± SE” value [2] was 0.723 ± 0.062.

O=c1c(O)c(-c2ccc(O)cc2)oc2c(O)c(O)ccc12 [7,8,3,4′-Tetrahydroxyflavone] was tested, and the “Ratio to Control Rate Mean ± SE” value [2] was 1.91.

With O=c1c(-c2ccc(O)cc2)coc2cc(O)ccc12 [Daidzein, 7,4′-Dihydroxyisoflavone] the “Ratio to Control Rate Mean ± SE” value [12] was 2.28 ± 0.74.

In the case of O=c1c(O)c(-c2cc(O)c(O)c(O)c2)oc2cc(O)ccc12 [3,7,3′,4′,5′-Pentahydroxyflavone], the “Ratio to Control Rate Mean ± SE” value [2] is reported as 0.826 ± 0.074.

NC(=O)c1cccnc1 [Nicotinamide, reference compound] was tested, and the “SIRT1 Vmax decrease” value (50 μM nicotinamide, absence of resveratrol, NAD+ or p53-382 peptide varied) was 30% and 36% and the “Ratio to Control Rate Mean ± SE” value [6] was 0.428.

For O=c1cc(-c2ccc(O)cc2)oc2cc(O)cc(O)c12 [Apigenin, 5,7,4′-Trihydroxyflavone], the “Ratio to Control Rate Mean ± SE” value [3] was 2.77 ± 0.40.

With O=c1c(O)c(-c2ccc(O)cc2O)oc2cc(O)cc(O)c12 [Morin, 3,5,7,2′,4′-Pentahydroxyflavone] the “Ratio to Control Rate Mean ± SE” value [2] was 1.461 ± 0.071.

COCOc1cc(/C=C/c2ccc(SC)cc2)cc(OCOC)c1 [BML-226, 3,5-Dimethoxymethoxy-4′-thiomethyl-trans-stilbene] was tested, and the “Ratio to Control Rate Mean ± SE” value [10] was 2.316 ± 0.087.

For COc1ccc(/C=C/c2cc(O)cc(O[C@@H]3O[C@H](CO)[C@@H](O)[C@H](O)[C@H]3O)c2)cc1O [Rhapontin, 3,3′,5-Trihydroxy-4′-methoxystilbene 3-O-β-D-glucoside], the “Ratio to Control Rate Mean ± SE” value [1] was 1.40 ± 0.37.

With COc1ccc(/C=C/c2cc(O)cc(O[C@@H]3O[C@H](CO)[C@@H](O)[C@H](O)[C@H]3O)c2)cc1 [Deoxyrhapontin, 3,5-Dihydroxy-4′-methoxystilbene 3-O-β-D-glucoside] the “Ratio to Control Rate Mean ± SE” value [1] was 1.94 ± 0.21.

COc1ccc(/C=C/c2ccccc2)cc1 [4-Methoxy-trans-stilbene] was tested, and the “Ratio to Control Rate Mean ± SE” value [5] was 0.840 ± 0.089.

With Cc1ccc(/C=C/c2cc(O)cc(O)c2)cc1 [BML-228, 3,5-Dihydroxy-4′-methyl-trans-stilbene] the “Ratio to Control Rate Mean ± SE” value [8] was 7.72 ± 0.12.

With O=C(O[C@@H]1Cc2c(O)cc(O)cc2O[C@@H]1c1cc(O)c(O)c(O)c1)c1cc(O)c(O)c(O)c1 [(−)-Epigallocatechin Gallate] the “Ratio to Control Rate Mean ± SE” value (Supplementary Table 5, catechins, 100 μM, 25 μM NAD+, 25 μM p53-382 acetylated peptide) was 0.32 ± 0.12.

In the case of O=C(Nc1ccccc1)c1cc(O)cc(O)c1 [BML-219, N-phenyl-(3,5-dihydroxy)benzamide], the “Ratio to Control Rate Mean ± SE” value [5] is reported as 0.902 ± 0.014.

O=c1cc(-c2ccc(O)cc2)oc2cccc(O)c12 [5,4′-Dihydroxyflavone] was tested, and the “Ratio to Control Rate Mean ± SE” value [2] was 1.56 ± 0.15.
